Experimental data taken from BindingDB's records for doi:10.7270/Q2X63KDM (Burnham Center For Chemical Genomics, 2010).

Target: Intestinal-type alkaline phosphatase (Homo sapiens, UniProt P09923)
Assay: inhibition of human intestinal alkaline phosphatase – biochemical, dose response (AID 488876)

Intestinal-type alkaline phosphatase, sequence (P09923 whole entry): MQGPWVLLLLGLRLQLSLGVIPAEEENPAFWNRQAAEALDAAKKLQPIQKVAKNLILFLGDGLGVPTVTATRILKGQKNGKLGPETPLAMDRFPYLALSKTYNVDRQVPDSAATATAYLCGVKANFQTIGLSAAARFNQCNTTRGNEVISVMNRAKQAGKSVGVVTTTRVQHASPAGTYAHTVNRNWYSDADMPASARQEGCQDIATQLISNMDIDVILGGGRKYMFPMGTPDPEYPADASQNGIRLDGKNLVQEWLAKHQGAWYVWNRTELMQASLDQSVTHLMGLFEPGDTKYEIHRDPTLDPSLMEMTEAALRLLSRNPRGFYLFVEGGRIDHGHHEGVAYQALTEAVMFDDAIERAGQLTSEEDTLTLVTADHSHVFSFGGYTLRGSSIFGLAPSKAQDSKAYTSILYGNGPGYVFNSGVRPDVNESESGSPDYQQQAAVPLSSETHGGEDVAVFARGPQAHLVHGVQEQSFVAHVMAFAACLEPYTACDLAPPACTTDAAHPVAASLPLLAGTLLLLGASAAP

In the case of `C#CCOCCOCCOCCNc1nc(N2CCN(C(=O)CCCCCCCCCCNC(=O)[C@@H](CCSC)n3cc(CCO)nn3)CC2)nc(N2CCN(C(=O)CCCCCCCCCCNC(=O)[C@H]([C@@H](C)CC)n3cc(CCCCCN)nn3)CC2)n1` [MLS002153719], the IC50 is reported as 14.3 µM.

For `COc1cc(C=Nn2c(O)csc2=S)ccc1O` [3-[[(E)-(3-methoxy-4-oxidanylidene-cyclohexa-2,5-dien-1-ylidene)methyl]amino]-2-sulfanylidene-1,3-thiazolidin-4-one], the IC50 was 21.3 µM.

For `C#CCOCCOCCOCCNc1nc(N2CCN(C(=O)CCCCCCCCCCNC(=O)[C@H]([C@@H](C)CC)n3cc(CCCCN=C(N)N)nn3)CC2)nc(N2CCN(C(=O)CCCCCCCCCCNC(=O)[C@@H]([C@H](C)O)n3cc(C)nn3)CC2)n1` [GT-RI], the IC50 was 86.3 µM.

For `C#CCOCCOCCOCCNc1nc(N2CCN(C(=O)CCCCCCCCCCNC(=O)Cn3cc(CCCCCN)nn3)CC2)nc(N2CCN(C(=O)CCCCCCCCCCNC(=O)Cn3cc(C[C@@H](C)O)nn3)CC2)n1` [KG-TG], the IC50 was > 100 µM.

In the case of `COc1cc(C=CC(=O)CC(=O)C=Cc2ccc(O)cc2)ccc1O` [demethoxycurcumin], the IC50 is reported as > 100 µM.

For `Nc1nnc(CC(=O)N/N=C/C2C=C([N+](=O)[O-])C=C(Br)C2=O)s1` (centres undefined) [2-(5-azanyl-1,3,4-thiadiazol-2-yl)-N'-[(E)-(5-bromanyl-3-nitro-6-oxidanylidene-cyclohexa-2,4-dien-1-ylidene)methyl]ethanehydrazide], the IC50 was > 100 µM.

`Cc1ccc(Cl)c2c1NC(=O)/C2=C1/NC(=S)NC1=O` was tested, and the IC50 was > 100 µM.

In the case of `NS(=O)(=O)c1cc(C(=O)NNC2=c3ccccc3=NC2=O)ccc1Cl` [2-chloro-5-[[(2-oxoindol-3-yl)amino]carbamoyl]benzenesulfonamide], the IC50 is reported as > 100 µM.

For `O=C(Nn1c(O)csc1=S)C(=O)Nn1c(O)csc1=S` [SMR000349781], the IC50 was > 100 µM.

For `Cc1ccc(/C=C2\SC(=S)N(/N=C/C3C=C([N+](=O)[O-])C=CC3=O)C2=O)o1` (centres undefined) [(5Z)-5-[(5-methylfuran-2-yl)methylidene]-3-[[(E)-(3-nitro-6-oxocyclohexa-2,4-dien-1-ylidene)methyl]amino]-2-sulfanylidene-1,3-thiazolidin-4-one], the IC50 was 80 µM.

In the case of `O=C1C=CC(C=NNC(=S)Nc2ccccc2[N+](=O)[O-])C=C1O` (centres undefined) [MLS000417596], the IC50 is reported as > 100 µM.

With `O=C1C=CC(/C=C/c2nc(O)c([N+](=O)[O-])c(=O)[nH]2)C=C1O` (centres undefined) [SMR000524347] the IC50 was 4.34 µM.

With `Oc1ccc(C=Nn2c(O)csc2=S)c(O)c1O` [3-[[(E)-[2,3-bis(oxidanyl)-4-oxidanylidene-cyclohexa-2,5-dien-1-ylidene]methyl]amino]-2-sulfanylidene-1,3-thiazolidin-4-one] the IC50 was > 100 µM.

In the case of `CC1NON=C1C(=O)NN=CC1=CC(=O)C(=O)C=C1` (centres undefined) [4-Methyl-furazan-3-carboxylic acid (3,4-dihydroxy-benzylidene)-hydrazide], the IC50 is reported as 14 µM.
